In USRE50050E1, “Pyrimidinedione compounds” (MyoKardia, Inc., priority 2013, dated 2024):

These compounds were tested against T1, bovine cardiac myosin (Bos taurus, UniProt Q9BE39) (assay: Myosin inhibition assay (PK/LDH-coupled ATPase, bovine cardiac myofibrils)). Details: bovine cardiac myofibrils, calcium giving 50% activation (pCa50); read-out: Biochemical Activity (pCa50).
T1 construct: The source of cardiac myosin was from bovine heart in the form of skinned myofibrils; from tissue; host or cells: bovine heart, skinned myofibrils
T1 sequence (Q9BE39 whole entry): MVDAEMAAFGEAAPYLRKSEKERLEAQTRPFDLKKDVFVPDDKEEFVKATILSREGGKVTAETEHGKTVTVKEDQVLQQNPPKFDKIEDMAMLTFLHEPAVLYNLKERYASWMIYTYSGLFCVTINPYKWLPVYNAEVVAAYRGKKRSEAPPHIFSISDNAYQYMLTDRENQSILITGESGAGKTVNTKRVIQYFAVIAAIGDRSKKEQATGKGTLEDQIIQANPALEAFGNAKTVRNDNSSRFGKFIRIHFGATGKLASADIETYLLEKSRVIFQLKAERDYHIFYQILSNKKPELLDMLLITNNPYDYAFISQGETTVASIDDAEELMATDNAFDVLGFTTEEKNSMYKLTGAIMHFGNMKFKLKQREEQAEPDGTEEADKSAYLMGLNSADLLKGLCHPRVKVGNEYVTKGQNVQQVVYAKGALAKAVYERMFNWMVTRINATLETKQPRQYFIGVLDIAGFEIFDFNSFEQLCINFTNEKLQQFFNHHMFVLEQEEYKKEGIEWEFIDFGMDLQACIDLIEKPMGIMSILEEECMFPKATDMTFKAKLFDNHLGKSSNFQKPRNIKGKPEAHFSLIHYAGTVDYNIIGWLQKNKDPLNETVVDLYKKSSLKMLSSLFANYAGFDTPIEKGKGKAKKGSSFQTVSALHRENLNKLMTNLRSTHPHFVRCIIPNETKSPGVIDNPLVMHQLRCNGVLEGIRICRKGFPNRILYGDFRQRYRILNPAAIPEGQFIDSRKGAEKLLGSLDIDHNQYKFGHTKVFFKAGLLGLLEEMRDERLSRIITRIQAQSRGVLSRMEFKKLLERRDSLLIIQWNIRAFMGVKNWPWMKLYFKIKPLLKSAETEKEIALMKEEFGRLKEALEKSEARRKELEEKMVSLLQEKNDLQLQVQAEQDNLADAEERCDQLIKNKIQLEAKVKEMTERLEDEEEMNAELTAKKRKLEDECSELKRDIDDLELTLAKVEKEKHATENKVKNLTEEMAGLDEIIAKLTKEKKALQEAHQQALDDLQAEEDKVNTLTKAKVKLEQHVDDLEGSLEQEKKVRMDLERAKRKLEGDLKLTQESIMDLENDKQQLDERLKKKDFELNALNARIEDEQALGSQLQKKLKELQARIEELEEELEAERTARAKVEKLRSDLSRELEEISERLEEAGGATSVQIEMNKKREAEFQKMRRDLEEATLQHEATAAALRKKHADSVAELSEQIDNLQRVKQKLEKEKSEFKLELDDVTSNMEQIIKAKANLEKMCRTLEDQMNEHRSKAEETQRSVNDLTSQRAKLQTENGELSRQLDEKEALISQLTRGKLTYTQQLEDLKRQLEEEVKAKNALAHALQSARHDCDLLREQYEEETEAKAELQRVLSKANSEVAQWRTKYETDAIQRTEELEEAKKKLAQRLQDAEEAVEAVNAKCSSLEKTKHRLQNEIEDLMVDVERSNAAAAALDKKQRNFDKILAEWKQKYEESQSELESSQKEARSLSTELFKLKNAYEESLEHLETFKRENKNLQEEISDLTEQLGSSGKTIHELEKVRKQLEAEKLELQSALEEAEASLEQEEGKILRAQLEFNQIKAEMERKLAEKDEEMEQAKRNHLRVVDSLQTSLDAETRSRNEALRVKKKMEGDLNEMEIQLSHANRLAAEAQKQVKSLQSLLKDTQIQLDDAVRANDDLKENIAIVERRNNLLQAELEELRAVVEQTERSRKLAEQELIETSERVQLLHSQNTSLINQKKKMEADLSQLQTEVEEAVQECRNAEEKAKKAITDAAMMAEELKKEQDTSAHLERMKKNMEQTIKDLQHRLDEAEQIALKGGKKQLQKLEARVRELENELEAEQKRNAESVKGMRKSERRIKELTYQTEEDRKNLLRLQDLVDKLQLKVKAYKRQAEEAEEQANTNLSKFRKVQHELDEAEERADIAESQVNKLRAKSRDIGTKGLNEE
T1 sequence (P85100 whole entry partner): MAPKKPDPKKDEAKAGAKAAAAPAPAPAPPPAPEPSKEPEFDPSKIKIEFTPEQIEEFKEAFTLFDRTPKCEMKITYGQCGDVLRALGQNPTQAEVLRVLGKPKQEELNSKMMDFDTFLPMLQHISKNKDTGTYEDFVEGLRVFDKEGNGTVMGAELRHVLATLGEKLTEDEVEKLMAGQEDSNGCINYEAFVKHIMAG
T1 sequence (Q3SZE5 whole entry partner): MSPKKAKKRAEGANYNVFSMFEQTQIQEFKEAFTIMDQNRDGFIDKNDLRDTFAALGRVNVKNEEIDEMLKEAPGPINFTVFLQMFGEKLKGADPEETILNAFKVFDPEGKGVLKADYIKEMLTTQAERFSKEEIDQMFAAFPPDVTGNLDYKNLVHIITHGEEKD
Type: biochemical

IC50 | Structure (SMILES)
1000 to 15000 nM | C[C@H](Nc1cc(=O)n([C@H](C)CO)c(=O)[nH]1)c1ccccc1 [Compound 54, 3-((R)-1-hydroxypropan-2-yl)-6-(((S)-1-phenylethyl)amino)pyrimidine-2,4(1H,3H)-dione]
1000 to 15000 nM | C[C@H](Nc1cc(=O)n(Cc2ccccc2)c(=O)[nH]1)c1ccccc1 [Compound 57, (S)-3-benzyl-6-((1-phenylethyl)amino)pyrimidine-2,4(1H,3H)-dione]
< 1000 nM | CC(C)n1c(=O)cc(N[C@@H](C)c2ccc(OCc3ccccc3)cc2)[nH]c1=O [Compound 62, (S)-6-((1-(4-(benzyloxy)phenyl)ethyl)amino)-3-isopropylpyrimidine-2,4(1H,3H)-dione]
< 1000 nM | CC(C)n1c(=O)cc(N[C@@H](C)c2ccc(O)cc2)[nH]c1=O [Compound 63, (S)-6-((1-(4-hydroxyphenyl)ethyl)amino)-3-isopropylpyrimidine-2,4(1H,3H)-dione]
1000 to 15000 nM | CC(C)n1c(=O)cc(N[C@@H](COCc2ccccc2)c2ccccc2)[nH]c1=O [Compound 64, (R)-6-((2-(benzyloxy)-1-phenylethyl)amino)-3-isopropylpyrimidine-2,4(1H,3H)-dione]
1000 to 15000 nM | Cc1cccc(-n2c(=O)cc(N[C@@H](C)c3ccccc3)[nH]c2=O)n1 [Compound 65, (S)-3-(6-methylpyridin-2-yl)-6-((1-phenylethyl)amino)pyrimidine-2,4(1H,3H)-dione]
1000 to 15000 nM | C[C@H](Nc1cc(=O)n(CC(F)F)c(=O)[nH]1)c1ccccc1 [Compound 66, (S)-3-(2,2-difluoroethyl)-6-((1-phenylethyl)amino)pyrimidine-2,4(1H,3H)-dione]
< 1000 nM | Cc1ccccc1[C@H](C)Nc1cc(=O)n(C(C)C)c(=O)[nH]1 [Compound 68, (S)-3-isopropyl-6-((1-(o-tolyl)ethyl)amino)pyrimidine-2,4(1H,3H)-dione]
< 1000 nM | C[C@H](Nc1cc(=O)n(C2CCC(F)(F)CC2)c(=O)[nH]1)c1ccccc1 [Compound 82]
1000 to 15000 nM | C[C@H](Nc1cc(=O)n([C@@H](C)CO)c(=O)[nH]1)c1ccccc1 [Compound 92]
1000 to 15000 nM | CC(C)n1c(=O)cc(N[C@@H](CO)c2ccccc2)[nH]c1=O [Compound 93]
< 1000 nM | C[C@H](Nc1cc(=O)n([C@@H](C)C(F)(F)F)c(=O)[nH]1)c1ccccc1 [Compound 95]
1000 to 15000 nM | C[C@H](Nc1cc(=O)n(C(C)(C)C)c(=O)[nH]1)c1ccccc1 [Compound 101]
1000 to 15000 nM | COCCn1c(=O)cc(N[C@@H](C)c2ccccc2)[nH]c1=O [Compound 102]
< 1000 nM | CC[C@H](Nc1cc(=O)n([C@@H](C)C(F)(F)F)c(=O)[nH]1)c1ccccc1 [Compound 103]
< 1000 nM | C[C@H](Nc1cc(=O)n([C@H](C)C2CC2)c(=O)[nH]1)c1ccccc1 [Compound 104]
< 1000 nM | C[C@H](Nc1cc(=O)n([C@@H](C)C2CC2)c(=O)[nH]1)c1ccccc1 [Compound 105]
< 1000 nM | CCn1c(=O)cc(N[C@H](c2ccccc2)C2CCC2)[nH]c1=O [Compound 106]
< 1000 nM | CC(C)n1c(=O)cc(N[C@@H](C)c2ccc3c(c2)OCO3)[nH]c1=O [Compound 107]
< 1000 nM | CCn1c(=O)cc(N[C@@H](C)c2ccc3c(c2)OCO3)[nH]c1=O [Compound 108]
1000 to 15000 nM | CC[C@H](Nc1cc(=O)n(CC(F)(F)F)c(=O)[nH]1)c1ccccc1 [Compound 109]

IC50 | Structure (SMILES)
1000 to 15000 nM | C[C@H](Nc1cc(=O)n(CC2CC2)c(=O)[nH]1)c1ccccc1 [Compound 110]
1000 to 15000 nM | O=c1cc(N[C@H](c2ccccc2)C2CC2)[nH]c(=O)n1CC(F)(F)F [Compound 111]
< 1000 nM | O=c1cc(N[C@H](c2ccccc2)C2CCC2)[nH]c(=O)n1CC(F)(F)F [Compound 112]
1000 to 15000 nM | C[C@H](Nc1cc(=O)n(C(CO)CO)c(=O)[nH]1)c1ccccc1 [Compound 113]
< 1000 nM | CC(C)n1c(=O)cc(N[C@@H](C)c2ccccc2O)[nH]c1=O [Compound 116]
< 1000 nM | C[C@H](Nc1cc(=O)n(C2(C(F)(F)F)CC2)c(=O)[nH]1)c1ccccc1 [Compound 117]
< 1000 nM | C[C@@H](Cc1ccc(F)cc1)Nc1cc(=O)n(-c2cc(F)cc(F)c2)c(=O)[nH]1 [Compound 118]
< 1000 nM | CC(C)n1c(=O)cc(N[C@@H](C)c2ccc3c(c2)OC(F)(F)O3)[nH]c1=O [Compound 119]
< 1000 nM | CC(C)n1c(=O)cc(N[C@@H](C)c2ccccc2Cl)[nH]c1=O [Compound 120]
< 1000 nM | COc1ccc([C@H](C)Nc2cc(=O)n(C(C)C)c(=O)[nH]2)cc1 [Compound 121]
1000 to 15000 nM | CCn1c(=O)cc(N[C@H](c2ccccc2)C2CC2)[nH]c1=O [Compound 122]
< 1000 nM | CCn1c(=O)cc(N[C@@H](C)c2cccc(Cl)c2)[nH]c1=O [Compound 123]
< 1000 nM | CCn1c(=O)cc(N[C@@H](C)c2cccc(C(F)(F)F)c2)[nH]c1=O [Compound 124]
< 1000 nM | C[C@H](Nc1cc(=O)n(CC2CC2)c(=O)[nH]1)c1cccc(F)c1 [Compound 125]
1000 to 15000 nM | C[C@H](Nc1cc(=O)n(CC2CC2)c(=O)[nH]1)c1cccc(C(F)(F)F)c1 [Compound 126]
< 1000 nM | C[C@H](Nc1cc(=O)n(CC2CC2)c(=O)[nH]1)c1cccc(Cl)c1 [Compound 127]
1000 to 15000 nM | CC(C)n1c(=O)[nH]c(N[C@@H](C)c2ccc3c(c2)OC(F)(F)O3)c(Cl)c1=O [Compound 128]
1000 to 15000 nM | CCCn1c(=O)cc(N[C@@H](C)c2cccc(F)c2)[nH]c1=O [Compound 129]
< 1000 nM | CCCn1c(=O)cc(N[C@@H](C)c2cccc(Cl)c2)[nH]c1=O [Compound 130]
< 1000 nM | CCCn1c(=O)cc(N[C@@H](C)c2cccc(C(F)(F)F)c2)[nH]c1=O [Compound 131]
< 1000 nM | C[C@H](Nc1cc(=O)n(C2CCC2)c(=O)[nH]1)c1ccc(F)cc1 [Compound 132]

Structure (SMILES) | IC50
C[C@H](n1c(=O)cc(N[C@@H](C)Cc2ccc(F)cc2)[nH]c1=O)C(F)(F)F [Compound 114] | < 1000 nM

Same assay, conditions: bovine cardiac myofibrils, calcium giving 75% activation (pCa75); read-out: Biochemical Activity (pCa75)

IC50 | Structure (SMILES)
1000 to 15000 nM | C[C@H](Nc1cc(=O)n([C@H](C)CO)c(=O)[nH]1)c1ccccc1 [Compound 54, 3-((R)-1-hydroxypropan-2-yl)-6-(((S)-1-phenylethyl)amino)pyrimidine-2,4(1H,3H)-dione]
< 1000 nM | CC(C)n1c(=O)cc(N[C@@H](C)c2cccc(C(F)(F)F)c2)[nH]c1=O [Compound 55, (S)-3-isopropyl-6-((1-(3-(trifluoromethyl)phenyl)ethyl)amino) pyrimidine-2,4(1H,3H)-dione]
> 15000 nM | CC(C)n1c(=O)cc(N[C@@H](C)c2ccccc2C#N)[nH]c1=O [Compound 56, (S)-3-isopropyl-6-((1-(2-cyanophenyl)ethyl)amino)pyrimidine-2,4(1H,3H)-dione]
< 1000 nM | C[C@H](Nc1cc(=O)n(-c2c(F)cccc2F)c(=O)[nH]1)c1ccccc1 [Compound 58, (S)-3-(2,6-difluorophenyl)-6-((1-phenylethyl)amino)pyrimidine-2,4(1H,3H)-dione]
< 1000 nM | CC(C)n1c(=O)cc(N[C@@H](C)c2c(F)cccc2F)[nH]c1=O [Compound 59, (S)-6-((1-(2,6-difluorophenyl)ethyl)amino)-3-isopropylpyrimidine-2,4(1H,3H)-dione]
1000 to 15000 nM | CC(C)n1c(=O)cc(N[C@@H](C)Cc2ccncc2)[nH]c1=O [Compound 61, (S)-3-isopropyl-6-((1-(pyridin-4-yl)propan-2-yl)amino)pyrimidine-2,4(1H,3H)-dione]
1000 to 15000 nM | CC(C)n1c(=O)cc(N[C@@H](C)c2cccc(-n3ccnc3)c2)[nH]c1=O [Compound 72]
1000 to 15000 nM | C[C@H](Nc1cc(=O)n(-c2ccnnc2)c(=O)[nH]1)c1ccccc1 [Compound 73]
1000 to 15000 nM | C[C@H](Nc1cc(=O)n(-c2cncnc2)c(=O)[nH]1)c1ccccc1 [Compound 74]
1000 to 15000 nM | C[C@H](Nc1cc(=O)n(-c2cnccn2)c(=O)[nH]1)c1ccccc1 [Compound 75]
1000 to 15000 nM | CC(C)n1c(=O)cc(N[C@@H](C)c2cccnc2)[nH]c1=O [Compound 76]
1000 to 15000 nM | C[C@H](Nc1cc(=O)n(-c2cnn(C)c2)c(=O)[nH]1)c1ccccc1 [Compound 77]
< 1000 nM | CCC[C@H](Nc1cc(=O)n(C(C)C)c(=O)[nH]1)c1ccccc1 [Compound 78]
1000 to 15000 nM | C[C@H](Nc1cc(=O)n([C@@H]2CCCOC2)c(=O)[nH]1)c1ccccc1 [Compound 79]
< 1000 nM | C[C@H](Nc1cc(=O)n(C2CCCC2)c(=O)[nH]1)c1ccccc1 [Compound 80]
1000 to 15000 nM | CC(C)[C@H](Nc1cc(=O)n(C(C)C)c(=O)[nH]1)c1ccccc1 [Compound 81]
< 1000 nM | C[C@H](Nc1cc(=O)n(C2CCC(F)(F)CC2)c(=O)[nH]1)c1ccccc1 [Compound 82]
< 1000 nM | CCC(CC)n1c(=O)cc(N[C@@H](C)c2ccccc2)[nH]c1=O [Compound 83]
< 1000 nM | C[C@H](Nc1cc(=O)n(C2CCN(C(=O)c3ccccc3)CC2)c(=O)[nH]1)c1ccccc1 [Compound 84]
< 1000 nM | CC(C)n1c(=O)cc(N[C@@H](C)CCc2ccccc2)[nH]c1=O [Compound 85]
1000 to 15000 nM | COC(=O)Cn1c(=O)cc(N[C@@H](C)c2ccccc2)[nH]c1=O [Compound 86]
1000 to 15000 nM | C[C@H](Nc1cc(=O)n([C@@H](C)COCc2ccccc2)c(=O)[nH]1)c1ccccc1 [Compound 91]
1000 to 15000 nM | C[C@H](Nc1cc(=O)n([C@@H](C)CO)c(=O)[nH]1)c1ccccc1 [Compound 92]
< 1000 nM | CC(C)n1c(=O)cc(N[C@@H](CO)c2ccccc2)[nH]c1=O [Compound 93]
< 1000 nM | C[C@H](Nc1cc(=O)n([C@H](C)C(F)(F)F)c(=O)[nH]1)c1ccccc1 [Compound 94]
< 1000 nM | C[C@H](Nc1cc(=O)n([C@@H](C)C(F)(F)F)c(=O)[nH]1)c1ccccc1 [Compound 95]
< 1000 nM | CC(CC(F)(F)F)n1c(=O)cc(N[C@@H](C)c2ccccc2)[nH]c1=O (some centres unmarked) [Compound 99]
1000 to 15000 nM | C[C@H](Nc1cc(=O)n(CC(F)(F)F)c(=O)[nH]1)c1ccccc1 [Compound 100]

Structure (SMILES) | IC50
CC(C)n1c(=O)cc(N[C@@H](C)Cc2ccccc2)[nH]c1=O [Compound 90] | 1000 to 15000 nM

Same assay, conditions: pCa75; assay conducted using 0.5 μM myosin, IC50 values below 1.0 μM are approximate; read-out: IC50 (pCa75)

IC50 | Structure (SMILES)
450 nM | CC(C)n1c(=O)cc(N[C@@H](C)c2c(F)cccc2F)[nH]c1=O [Compound 59, (S)-6-((1-(2,6-difluorophenyl)ethyl)amino)-3-isopropylpyrimidine-2,4(1H,3H)-dione]
> 39200 nM | CC(C)n1c(=O)cc(N[C@H](C)c2c(F)cccc2F)[nH]c1=O [Compound 60R, (R)-6-((1-(2,6-difluorophenyl)ethyl)amino)-3-isopropylpyrimidine-2,4(1H,3H)-dione]
